In PMC9962921, “Interlaboratory Study to Evaluate a Testing Protocol for the Safety of Food Packaging Coatings” (Toxics, 2023) one finds EC50 data, which are given here for 1 compound.

The structures appear in SMILES notation. Read-outs that look alike come from different tables or passages of the source.

In assay [1] the target is T1, Aryl hydrocarbon Receptor (AhR) (Rattus norvegicus, UniProt P41738).
T1 sequence (P41738 10-853): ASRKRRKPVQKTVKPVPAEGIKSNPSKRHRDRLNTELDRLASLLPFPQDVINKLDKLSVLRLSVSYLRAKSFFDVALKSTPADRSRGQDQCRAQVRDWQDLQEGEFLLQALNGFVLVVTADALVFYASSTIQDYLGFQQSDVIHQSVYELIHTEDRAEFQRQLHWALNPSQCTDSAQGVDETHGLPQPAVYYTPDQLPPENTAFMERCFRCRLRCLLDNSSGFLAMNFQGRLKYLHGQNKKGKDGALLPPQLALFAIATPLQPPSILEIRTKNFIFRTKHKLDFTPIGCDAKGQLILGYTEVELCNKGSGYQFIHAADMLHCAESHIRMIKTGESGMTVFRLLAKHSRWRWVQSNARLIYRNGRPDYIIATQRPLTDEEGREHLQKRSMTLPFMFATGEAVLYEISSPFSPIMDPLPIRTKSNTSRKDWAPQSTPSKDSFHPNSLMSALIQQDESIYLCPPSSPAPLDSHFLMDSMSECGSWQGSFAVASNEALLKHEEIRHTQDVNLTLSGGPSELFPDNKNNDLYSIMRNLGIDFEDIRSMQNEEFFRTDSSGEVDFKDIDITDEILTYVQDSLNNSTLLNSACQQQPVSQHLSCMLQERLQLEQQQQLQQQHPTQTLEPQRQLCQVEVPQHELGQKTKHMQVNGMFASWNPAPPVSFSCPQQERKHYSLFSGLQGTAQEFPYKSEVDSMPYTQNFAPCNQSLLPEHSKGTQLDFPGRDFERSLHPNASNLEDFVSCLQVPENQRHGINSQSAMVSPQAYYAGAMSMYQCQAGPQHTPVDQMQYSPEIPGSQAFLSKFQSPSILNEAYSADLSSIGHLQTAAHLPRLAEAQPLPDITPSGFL
As to the kind of experiment: AhR (PAH) CALUX reporter gene assay. As to conditions: EC50 AhR reference compound (mean). How it is done: Briefly, cells were seeded in a 96-well plate (VWR, Dietikon, Switzerland) and incubated for 24 h at 37 °C, 5% CO2 and 100% humidity. […] In addition, a serial dilution of each of the different migrates were exposed in triplicates. After 24 h of exposure for cytotoxicity, ERα, AR and 4 h of exposure for poly-aromatic hydrocarbons (PAH) of exposure, the luciferase activity is measured with a luminometer plate reader (Mithras, Berthold, Germany).
Relative luminescence units obtained were processed as described by proprietary calculation template (BDS) (Amsterdam, The Netherlands). Receptor-binding activation was quantified as the amount of relative luciferase units (RLU) emitted after samples’ exposure. The signal is proportional to the amount of ligand-specific receptor-binding activation. After normalization to solvent control (DMSO) the percentage of relative induction (RI) or relative inhibition (RInh) was calculated for the selected nuclear receptors and the cell viability. The samples were then expressed as percentage of the maximum reference compound response. All dose responses and dilutions were performed in technical triplicates. […] For the PAH CALUX bioassay, the threshold level was set as 10%. […] Dose–response obtained between laboratories C and D was compared.
In general terms: Reporter assays use an easily measured gene product as a stand-in for the process of interest.

The target of assay [2] is T1, Aryl hydrocarbon Receptor (AhR). As to conditions: read-out: EC50 standard range, AhR reference compound; historical range; ref BDS BioDetection Systems historical data; cited from earlier work.

For the compound `c1ccc2c(c1)cc1ccc3cccc4ccc2c1c34` [Benzo(a)pyrene, benzo[a]pyrene], the figures for the EC50 in assay [1] (LAB C), in assay [1] (LAB D) and in assay [2] were 3.3 nM, 7.2 nM and 1.6 to 16 nM, respectively.
